Reference: US5939403A, “Keratan sulfate oligosaccharide fraction and pharmaceutical containing the same” (Seikagaku Corporation, priority 1994, dated 1999)

How the values were obtained:
[1] = tested on: neutrophile of guinea pig; test: Inhibition of active oxygen (O2^-) generation in FMLP-stimulated neutrophile; format: cell-based, female Hartley guinea pigs
Procedure: To female Hartley guinea pigs of five weeks old (purchased from Japan SLC), 20 ml of the 0.2% aqueous solution of glycogen (Type II; Oyster; Sigma) dissolved in saline which was previously sterilized with autoclave, was intraperitoneally administered. The guinea pigs were sacrificed by bleeding 16 hours after the administration, and 20 ml of the saline containing heparin at a concentration of 10 U/ml was intraperitoneally injected to recover the peritoneal exudate. Hereinafter all the operations were carried out under ice-water cooling condition except for incubation. The recovered exudate was centrifuged at 1,000 rpm for 10 minutes, the precipitate obtained was hemolyzed with purified water for 30 seconds, and returned into isotonicity with the Hanks' solution at double the concentration (not containing phenol red; Nissui Seiyaku), and further it was centrifuged at 1,000 rpm for 10 minutes. The precipitate obtained was suspended in the Hanks' solution and centrifuged and the operations were repeated once more to give the neutrophile.
The collected neutrophile of the guinea pigs was suspended in the Hanks' solution, the number of leukocyte in the suspension was determined by a cytometer (System K-2000; Toa Iyo Denshi Co.), and the suspension diluted with the Hanks' solution to 2×10^6 cells/ml was used in the determination as the cell suspension. After mixing 1 ml of the cell suspension and 10 μl of the purified keratan sulfate oligosaccharide (keratan sulfate tetrasaccharide (I), the keratan sulfate pentasaccharide (II), or the keratan sulfate disaccharide (III)) prepared in Example 1 described above, and the mixture was preincubated at 37° C. for an hour. […]
The supernatant obtained by the centrifugation was separated and the absorbance thereof was determined at 550 nm to estimate the quantity of reducing cytochrome c per 2×10^6 cells after the 10 minutes incubation. The quantity of reducing cytochrome c increases with the generation of active oxygen (O2^-). […]

allergic conjunctivitis = test: TDI-induced allergic conjunctivitis model, eye dropping; format: in vivo, female Hartley guinea pigs; settings: 6.0 mg/ml eye drop, comparison of oligosaccharides
Procedure: A variety of the keratan sulfate oligosaccharide was dropped in the eyes of the guinea pigs subjected to the induction of allergic conjunctivitis to examine the effect thereof.
Toluene diisocyanate (hereinafter referred to as TDI) was diluted with ethyl acetate to a concentration of 10%. To the bilateral vestibule of noses of 10 female Hartley guinea pigs of from about 900 to 1,000 g weight, the 10% TDI (10 μl/animal) obtained above was applied once a day for five days to prepare the TDI sensitization models. The PBS solution of the purified keratan sulfate tetrasaccharide (I) ([…]) which was prepared in Example 1 was dropped in the left eyes of the TDI sensitization models, while PBS was dropped in the right eyes as the control. The dose of dropping was one drop (48+4.6 μl (S.D.)) each from the eye dropper. After 10 minutes, 6.5 μl of 10% TDI was dropped to the both eyes to induce conjunctivitis. After five minutes standing, furthermore, the PBS solution of the keratan sulfate tetrasaccharide (I) ([…]) was dropped in the left eyes, and PBS was dropped in the right eyes. After 15 minutes, observation of the both eyes were carried out. The degree of conjunctivitis was evaluated regarding three items of hyperemia, edema and lacrimation into four grades such as point 0, +1, +2 and +3. In the figure, * represents that it has the significant difference with p<0.05 (wherein "p" means a level of significance by the .chi.^2 test).
The PBS solution of the purified keratan sulfate disaccharide (III), the keratan sulfate tetrasaccharide (I), and the keratan sulfate pentasaccharide (II) (6.0 mg/ml, respectively)which were prepared in Example 1 described above as the test substances were dropped, respectively, in the left eyes of the TDI sensitization models of 10 animals a group each which were prepared in the same manner as in (1) described above, and PBS was dropped in the right eyes as the control. The degree of conjunctivitis was evaluated in the same manner as in (1) described above. In the figure, * represents that it has the significant difference with p<0.05 (wherein "p" means a level of significance by the .chi.^2 test).
The PBS solution containing the purified keratan sulfate tetrasaccharide (I) which was prepared in Example 1 described above, at varieties of concentrations (6 mg/ml, 3 mg/ml, 1.5 mg/ml or 0.75 mg/ml) as the test substance, were dropped, respectively, in the left eyes of the TDI sensitization models of 10 animals a group each which were prepared in the same manner as in (1) described above, and PBS was dropped in the right eyes as the control. The degree of conjunctivitis was evaluated in the same manner as in (1) described above. In the figure, * represents that it has the significant differnce with p<0.05 (wherein "p" means a level of significance by the .chi.^2 test).

papain-induced arthritis = test: Papain-induced unilateral arthritis model, intramuscular administration (volume of synovial fluid); format: in vivo, Japanese white rabbits (female); settings: 0.5 mg/kg intramuscular, unilateral model; 10 rabbits per group
Procedure: The anti-inflammatory effect of the keratan sulfate oligosaccharide with rabbits of the papain-induced arthritis model was examined using the volume of synovial fluid as an indication.
Seven days after the injection, the blood was drawn from the auricular artery, and plasma containing heparin was separated. After drawing the blood, the rabbits were anatomized and the both knee joint were separated. The articular cavity was washed with 2 ml of saline three times to recover the synovial fluid. The calcium concentrations in the plasma and the recovered synovial fluid were determined, and the volume of synovial fluid was calculated from the following formula.
Volume of Synovial Fluid (ul/articulation)=Amount of Calcium in Recovered
Synovial Fluid (μg/articulation)/Concentration of Calcium in Plasma
Into the articular cavity of left joint of Japanese white rabbits (female) of 3 kg weight, 150 μl of the saline solution of papain (1%) was injected, and the right joint was not treated to prepare the unilateral arthritis model. One day after injecting papain, 150 μl of the PBS solution of the purified keratan sulfate tetrasaccharide (I) (2%, 1%, and 0.5% solution; 1.0 mg/kg, 0.5 mg/kg, and 0.25 mg/kg, respectively) which was prepared in Example 1 was injected into the hip muscle of the left side (hereinafter referred to as "the keratan sulfate tetrasaccharide (I) administered group"). As the control, 150 μl of PBS was injected to the arthritis model instead of the PBS solution of the keratan sulfate tetrasaccharide (I) and hereinafter these rabbits are referred to as "the control group". And the normal rabbits not subjected to the papain injection (hereinafter referred to as "the normal group") were also examined in the same manner hereinafter. Seven days after the injection, the volume of synovial fluid was calculated in the same manner as in (1-1).
The examination was performed in the same manner as in (1-3) except for using 150 μl of the PBS solution of the purified keratan sulfate tetrasaccharide (I), the keratan sulfate pentasaccharide (II), and the keratan sulfate disaccharide (III) (1% solution; 0.5 mg/kg) which were prepared in Example 1. In the figure, *, **, and *** represent that they have the significant difference with p<0.05, p<0.01, and p<0.001, respectively. And in each group, 10 rabbits were used for the examination.

Substance: NeuAc~Galβ1-4GlcNAc(6S)β1-3Gal(6S)β1-4GlcNAc(6S) [keratan sulfate pentasaccharide (II)]
- inhibitory function for generation of active oxygen (O2^-) (FIG. 10) [1]: slightly observed
- degree of conjunctivitis: hyperemia, edema and lacrimation (FIG. 12) (allergic conjunctivitis): tended to show inhibition in all the items
- quantity of synovial fluid (FIG. 5, result in words) (papain-induced arthritis): significantly less than that in the control group
